Test results as given in patent US11957713B2, “Compositions and methods for treating diseases and disorders of the central nervous system” (priority 2016, dated 2024).

Tests used:
[1] = system: microglia progenitors, CD45^+c-kit^+ cells; experiment: Pretreatment to induce microglia progenitor proliferation; format: in vivo, mice; conditions: single dose of busulfan 25 mg/kg or ten days oral CSF 1R inhibitor
Procedure: These NP formulations were injected ICV in the brain of wild type adult animals that were pretreated with i) a single dose of busulfan 25 mg/kg or ii) ten days of oral administered CSF 1R inhibitor ((Elmore et al., Neuron. […] Five days after NP injection, animals were analyzed for the occurrence of Etoposide-mediated killing of microglia cells and/or their progenitors, using busulfan standard treatment (4 doses of 25 mg/kg) as reference for brain microglia progenitor ablation.

[2] = system: bone marrow and brain clonogenic cells; experiment: Colony forming unit (CFU) output of bone marrow and brain cells after conditioning; format: in vivo, mice; conditions: busulfan conditioning, 14 days after plating
Procedure: FIG. 6A depicts an experimental scheme for HCT. CFUs were plated from bone marrow (BM) and brain of naïve (UT), BU-treated and irradiated (IRR) mice, as well as from mice previously transplanted with CD45.2 GFP-transduced HSPCs (BU-HCT). FIG. 6B is a graph depicting number of colonies (#CFC) obtained from the tissues of BU and IRR animals. FIG. 6C is a graph depicting number of colonies (#CFC) and of GFP^+ CFCs obtained from the tissues of BU-HCT animals. FIG. 6D is a graph depicting frequency of GFP^+ cells (and lineage differentiation for BM) retrieved by FACS analysis in BM and brain of secondary recipient mice receiving BM or brain cells or peripheral blood mononuclear cells from primary recipients; mice were sacrificed 4 months after transplant.
HSPCs have been identified within extramedullary tissues and thought to be transiently localized at those sites and able to proliferate locally giving rise to tissue-resident myeloid cells, preferentially dendritic cells. Clonogenic potential was referred to the presence of these cells also in the brain, however upon establishment of parabiotic pairs and differently from what observed in other extra-medullary tissues, chimerism between the two animals was not observed in the brain. […]

CD45^+ brain cells = experiment: γH2AX (flow cytometry, immunofluorescence) and annexin V in brain after systemic busulfan conditioning; format: in vivo, mice
Procedure: FIGS. 15A15-C depict identification of brain-resident putative μ progenitors by BU-susceptibility. […] Inset is a representative laser-scanning confocal microscope photomicrographs of co-immunostaining for γH2AX, neurons (NeuN), microglia (Ibal) or astrocytes (GFAP). Sca1e bar=[…]. Images were acquired at confocal microscope Radiance 2100 (Bio-Rad) 1×70 at magnification 20× and processed by the Soft Work 3.5.0; reconstruction was performed with Adobe Photoshop CS 8.0 software. Magnification 40× in the insets.
Previous studies have provided evidence for the existence of i) a functionally defined microglia precursor population located in the brain and susceptible to ablation upon administration of a busulfan-based conditioning and that may coincide with endogenous CNS-resident microglial progenitors (μP). Phosphorylated histone 2AX (γH2AX) is a sensitive and specific biomarker to track the cells targeted by busulfan in the brain. Thus, functional brain resident μP could be identified by taking advantage of busulfan and γH2AX, which is a pharmacodynamic marker of its cytotoxicity within these cells. γH2AX was investigated as a biomarker of busulfan cytotoxicity. In particular, the presence, distribution and cellular localization of γH2AX were studied by flow cytometry (FC) and immunofluorescence (IF) on brain slices from mice treated with systemic busulfan conditioning. […] By IF, γH2AX was hardly detectable in control mice, except for some γH2AX^+ foci found in few neuronal cells, mainly localized in the hippocampus (FIG. 16C top picture), where a correlation between physiological neuronal activity and H2AX phosphorylation has previously been shown. […] Similar experiments are on going in mice expressing reporter genes expressed by the promoter of markers of hematopoietic stem cell- and microglia-specific genes, such as Fgd5 or Cx3Cr1 in order to better track busulfan-susceptible cells.

brain-resident μP = experiment: Intra-brain (ICV) administration of busulfan through a cannula in the lateral ventricles

## CS(=O)(=O)OCCCCOS(C)(=O)=O [busulfan]
[1]
  proliferation of microglia progenitors / expansion of CD45^+c-kit^+ cells in brain: induce the proliferation of microglia progenitors and/or expand CD45^+c-kit^+ cells in the brain
[2]
  CFU output: drastic reduction in the CFU output
CD45^+ brain cells; CD45^+ brain cells, particularly CD11b^+ and c-kit^+, post-busulfan
  early apoptosis by annexin V staining: early apoptosis is also detected
CD45^+ brain cells; busulfan-treated mice, lateral ventricles, SVZ, RMS
  γH2AX signal by immunofluorescence on brain slices: γH2AX^+ signal was increased in nuclei of cells lining the lateral ventricles
CD45^+ brain cells; busulfan-treated versus control untreated, live CD45^+ cells, 1 and 5 days from the last busulfan dose
  γH2AX signal by flow cytometry: increase of γH2AX signal
brain-resident μP; ICV administration of busulfan
  neurotoxicity and local inflammation: extensive neurotoxicity and local inflammation
brain-resident μP; ICV administration of busulfan, data not shown
  transplanted HSPC engraftment: nor able to favor transplanted HSPC engraftment
brain-resident μP; ICV administration, different busulfan formulations, data not shown
  exposure of brain-resident μP to busulfan versus systemic drug administration: not able to guarantee exposure of brain-resident μP to busulfan levels comparable to those reached by systemic drug administration
